Experimental data published in the supplement of paper PMC10307832.

Key:
Assay in all cases: relative viability (nuclei count vs DMSO), 5 days (fraction); higher = more cells survive
EHT 1864 + Bortezomib = compound: C1COCCN1CC2=CC(=O)C(=CO2)OCCCCCSC3=C4C=CC(=CC4=NC=C3)C(F)(F)F [EHT 1864] + CC(C)C[C@H](NC(=O)[C@H](Cc1ccccc1)NC(=O)c1cnccn1)B(O)O [Bortezomib] (partner 0.002 µM)
Outline: (§1)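 For relative viability, nuclei counts in treated wells were divided by those in vehicle wells. Lung cancer cell lines had been pin-tool dosed in 1536-well plates the day after seeding and cultured for 5 days, then fixed and stained in one step (final 0.05% Triton X-100, 1% formaldehyde, 1 ug/ml Hoechst) and imaged at 4×. Doses were one drug alone or a fixed anchor-drug dose plus five library-drug doses (not always all listed) in √10 steps, and values are duplicate-plate medians.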

EHT 1864 + Navitoclax = compound: C1COCCN1CC2=CC(=O)C(=CO2)OCCCCCSC3=C4C=CC(=CC4=NC=C3)C(F)(F)F [EHT 1864] + CC1(C)CCC(c2ccc(Cl)cc2)=C(CN2CCN(c3ccc(C(=O)NS(=O)(=O)c4ccc(N[C@H](CCN5CCOCC5)CSc5ccccc5)c(S(=O)(=O)C(F)(F)F)c4)cc3)CC2)C1 [Navitoclax] (partner 0.5 µM)
Outline: as §1

EHT 1864 + Luminespib = compound: C1COCCN1CC2=CC(=O)C(=CO2)OCCCCCSC3=C4C=CC(=CC4=NC=C3)C(F)(F)F [EHT 1864] + CCNC(=O)c1noc(-c2cc(C(C)C)c(O)cc2O)c1-c1ccc(CN2CCOCC2)cc1 [Luminespib] (partner 0.01 µM)
Outline: as §1

EHT 1864 + Dasatinib = compound: C1COCCN1CC2=CC(=O)C(=CO2)OCCCCCSC3=C4C=CC(=CC4=NC=C3)C(F)(F)F [EHT 1864] + Cc1nc(Nc2ncc(C(=O)Nc3c(C)cccc3Cl)s2)cc(N2CCN(CCO)CC2)n1 [Dasatinib] (partner 0.075 µM)
Outline: as §1

| Cell Line | relative viability (EHT 1864 + Bortezomib; first compound 0.04 µM) | relative viability (EHT 1864 + Bortezomib; first compound 0.1265 µM) | relative viability (EHT 1864 + Bortezomib; first compound 0.4 µM) | relative viability (EHT 1864 + Bortezomib; first compound 1.265 µM) | relative viability (EHT 1864 + Bortezomib; first compound 4 µM) | relative viability (EHT 1864 + Navitoclax; first compound 0.04 µM) | relative viability (EHT 1864 + Navitoclax; first compound 0.1265 µM) | relative viability (EHT 1864 + Navitoclax; first compound 0.4 µM) | relative viability (EHT 1864 + Navitoclax; first compound 1.265 µM) | relative viability (EHT 1864 + Navitoclax; first compound 4 µM) | relative viability (EHT 1864 + Luminespib; first compound 0.04 µM) | relative viability (EHT 1864 + Luminespib; first compound 0.1265 µM) | relative viability (EHT 1864 + Luminespib; first compound 0.4 µM) | relative viability (EHT 1864 + Luminespib; first compound 1.265 µM) | relative viability (EHT 1864 + Luminespib; first compound 4 µM) | relative viability (EHT 1864 + Dasatinib; first compound 0.04 µM) | relative viability (EHT 1864 + Dasatinib; first compound 0.1265 µM) | relative viability (EHT 1864 + Dasatinib; first compound 0.4 µM) | relative viability (EHT 1864 + Dasatinib; first compound 1.265 µM) | relative viability (EHT 1864 + Dasatinib; first compound 4 µM) |
| --- | --- | --- | --- | --- | --- | --- | --- | --- | --- | --- | --- | --- | --- | --- | --- | --- | --- | --- | --- | --- |
| HARA | 1.12 | 1.11 | 1.2 | 1.12 | 0.999 | 1.11 | 1.15 | 1.1 | 1.19 | 0.996 | 0.738 | 0.68 | 0.75 | 0.644 | 0.719 | 0.236 | 0.246 | 0.207 | 0.19 | 0.255 |
| HCC-15 | 0.955 | 0.808 | 1.04 | 0.867 | 1.05 | 0.732 | 0.576 | 0.682 | 0.649 | 0.736 | 0.451 | – | 0.24 | 0.369 | 0.251 | 0.56 | – | 0.623 | 0.618 | 0.543 |
| HCC-44 | 0.968 | 0.757 | 0.812 | 0.851 | 0.876 | 1.02 | 0.951 | 0.905 | 0.904 | 1.08 | 1.04 | 0.906 | 0.924 | 1.02 | 1.33 | – | – | – | – | – |
| HCC-78 | 0.409 | 0.534 | 0.432 | 0.456 | 1.1 | 0.618 | 0.746 | 0.693 | 0.685 | 1.1 | – | – | – | – | – | 0.365 | 0.367 | 0.357 | 0.338 | 0.337 |
| HCC-366 | 1.03 | – | 0.928 | 1.03 | 1.11 | 1.14 | – | 1.01 | 0.995 | 1.14 | – | – | – | – | – | 0.609 | 0.602 | 0.638 | 0.596 | 0.771 |
| IA-LM | 0.821 | 0.553 | 0.956 | 0.709 | 0.536 | 0.697 | 0.653 | 0.775 | 0.803 | 0.569 | – | – | – | – | – | – | – | – | – | – |
| LCLC-103H | 1.18 | 1.01 | 1.14 | 1.06 | 1.02 | – | – | – | – | – | 0.874 | 0.798 | 0.932 | 0.975 | 0.919 | 0.409 | 0.399 | 0.373 | 0.431 | 0.505 |
| LK-2 | – | – | – | – | – | 0.839 | 0.674 | 0.847 | 0.94 | 0.784 | 0.167 | – | 0.224 | 0.178 | 0.177 | 0.36 | – | 0.353 | 0.246 | 0.257 |
| NCI-H358 | – | – | – | – | – | – | – | – | – | – | 0.302 | 0.398 | 0.313 | 0.469 | 0.414 | 0.215 | 0.145 | 0.17 | 0.174 | 0.186 |
| NCI-H650 | 0.911 | – | 0.862 | 0.827 | 0.914 | – | – | – | – | – | 0.882 | 0.658 | 0.664 | 0.889 | 0.865 | 0.427 | 0.381 | 0.427 | 0.459 | 0.459 |
| NCI-H661 | 0.866 | 0.705 | 0.769 | 0.655 | 0.716 | – | – | – | – | – | 0.951 | 0.838 | 0.877 | 0.77 | 0.565 | 0.883 | 0.828 | 0.919 | 0.8 | 0.725 |
| NCI-H1299 | 1.02 | 0.986 | 0.993 | 0.994 | 0.917 | 1.02 | 1.02 | 1.05 | 0.986 | 0.984 | – | – | – | – | – | – | – | – | – | – |
| NCI-H1395 | – | – | – | – | – | 1.12 | 1.02 | 1.18 | 0.967 | 0.875 | 0.605 | 0.688 | 0.648 | 0.76 | 0.673 | 0.48 | 0.386 | 0.426 | 0.418 | 0.407 |
| NCI-H1563 | 0.901 | 0.853 | 0.861 | 0.89 | 0.751 | – | – | – | – | – | 0.497 | 0.503 | 0.556 | 0.54 | 0.553 | 0.437 | 0.466 | 0.469 | 0.43 | 0.489 |
| NCI-H1703 | 0.253 | 0.427 | 0.363 | 0.307 | 0.315 | 1.13 | 0.968 | 0.956 | 0.849 | 0.749 | – | – | – | – | – | – | – | – | – | – |
| NCI-H1793 | – | – | – | – | – | – | 0.366 | 0.485 | 0.364 | 0.387 | 0.143 | – | 0.141 | – | 0.178 | 0.307 | – | 0.304 | – | 0.419 |
| NCI-H1944 | – | – | – | – | – | 1.06 | – | 0.985 | 1.05 | 1.06 | 0.827 | – | 0.74 | 0.712 | 0.802 | 0.238 | – | 0.208 | 0.228 | 0.21 |
| NCI-H2170 | – | – | – | – | – | 0.674 | 0.511 | 0.646 | 0.573 | 0.56 | 0.725 | 0.751 | 0.745 | 0.63 | 0.612 | 0.608 | 0.579 | 0.688 | 0.474 | 0.563 |
| NCI-H2342 | – | – | – | – | – | – | – | – | – | – | 0.669 | 0.651 | 0.744 | 0.702 | 0.759 | 0.317 | 0.307 | 0.315 | 0.309 | 0.306 |
| SK-MES-1 | – | – | – | – | – | 1.3 | 1.13 | 1.29 | 1.31 | 1.17 | 0.596 | 0.64 | 0.748 | 0.726 | 0.798 | 0.427 | 0.409 | 0.44 | 0.423 | 0.333 |
